Test results: patent US9296720B2, “Carboxamide-substituted heteroaryl-pyrazoles and the use thereof” (AiCuris GmbH & Co. KG, priority 2011, dated 2016)

Legend:
HIV-1NL4-3 Wild Type = assay: Luminescence reduction assay, MT4 cells infected with HIV-1NL4-3 luciferase reporter virus, wild type; format: cell-based; settings: Human immunodeficiency virus 1, MT4, MT4 cells, 2% FCS
Procedure, shortened: (§1)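 Compound dilution series in 1% DMSO, with 2% or 10% FCS, incubated 5 days at 37° C/5% CO2 with MT4 cells previously pellet-infected (2 h) by luciferase reporter NL4-3 virus, wild type or carrying RT resistance mutations. EC50 taken where luminescence from secreted luciferase falls to 50% of untreated infected control.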

HIV-1NL4-3 K103N-Y181C = assay: Luminescence reduction assay, MT4 cells infected with HIV-1NL4-3 luciferase reporter virus, RT mutant K103N-Y181C; format: cell-based; settings: Human immunodeficiency virus 1, MT4, read-out: EC50 (μM) MT4 Cells HIV-1NL4-3 K103N-Y181C 2% FCS, MT4 cells, HIV-1NL4-3 K103N-Y181C, 2% FCS
Procedure, shortened: as §1

reverse transcriptase = target: T1, reverse transcriptase (Human immunodeficiency virus type 1 group M subtype B, UniProt P04585); assay: Biochemical reverse transcriptase assay (Reverse Transcriptase Assay, colorimetric, Roche); settings: colorimetric RT assay, DMSO 1%
T1 construct: negative control (batch without reverse transcriptase); purchased Roche Diagnostics GmbH, Mannheim, Germany
Procedure: The “Reverse Transcriptase Assay, colorimetric” (Roche Diagnostics GmbH, Mannheim, Germany) is used according to manufacturers' instructions. The test substances are dissolved in DMSO and used in diluted form in the test in the five steps (DMSO final concentration: 1%). The resulting values of the photometric analysis (405/492 nm) are smaller than 0.1 in the negative control (batch without reverse transcriptase) and are in the range of 1.5 in the positive control (batch without test substance). The IC50 values of the test substances are determined as the concentration of the test substance dilution, in which the measured optical density is 50% of the positive control.

HIV-1LAI Wild Type = assay: AlamarBlue viability assay, HIV-1LAI-infected MT4 cells; format: cell-based; settings: Human immunodeficiency virus 1, MT4, MT4 cells, 10% FCS
Procedure, shortened: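 MT4 cells infected with HIV-1LAI (MOI 0.01, supernatant infection) cultured 5 days at 37 °C with compounds in RPMI with 2% or 10% FCS, 1% DMSO final. AlamarBlue fluorescence after 3 h; EC50 as 50% protection relative to uninfected cells, CC50 from high-concentration cytotoxicity.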

SMILES	EC50 (HIV-1NL4-3 Wild Type)	EC50 (HIV-1NL4-3 K103N-Y181C)	IC50 (reverse transcriptase)	EC50 (HIV-1LAI Wild Type)
O=C1CN(C(=O)c2cc(-c3cc(F)cc(OC(F)(F)F)c3)n(-c3cccnc3)n2)CCN1 [Example 58]	0.204 µM	1.09 µM	56 nM	0.955 µM
O=C1CN(C(=O)c2cc(-c3cc(Br)cc(OC(F)(F)F)c3)n(-c3cccnc3)n2)CN1 [Example 28, 1-({5-[3-Bromo-5-(trifluoromethoxy)phenyl]-1-(pyridin-3-yl)-1H-pyrazol-3-yl}carbonyl)imidazolidin-4-one]	0.005 µM	0.005 µM	213 nM	0.044 µM
O=C(c1cc(-c2cc(Cl)cc(OC(F)F)c2)n(-c2cccnc2)n1)N1CCS(=O)(=O)C1 [Example 83, {5-[3-Chloro-5-(difluoromethoxy)phenyl]-1-(pyridin-3-yl)-1H-pyrazol-3-yl}(1,1-dioxido-1,3-thiazolidin-3-yl)methanone]	0.008 µM	0.168 µM	65 nM	0.089 µM
O=C1CN(C(=O)c2cc(-c3cc(Br)cc(OC(F)(F)F)c3)n(-c3ccnc(Cl)c3)n2)CCN1 [Example 49, 4-({5-[3-Bromo-5-(trifluoromethoxy)phenyl]-1-(2-chloropyridin-4-yl)-1H-pyrazol-3-yl}carbonyl)piperazin-2-one]	0.008 µM	0.038 µM	758 nM	0.23 µM
Cc1ccc(-n2nc(C(=O)N3CNC(=O)C3)cc2-c2cc(F)cc(Cl)c2)cn1 [Example 11, 1-{[5-(3-Chloro-5-fluorophenyl)-1-(6-methylpyridin-3-yl)-1H-pyrazol-3-yl]carbonyl}imidazolidin-4-one]	0.007 µM	0.061 µM		0.057 µM
O=C(c1cc(-c2cc(F)cc(Cl)c2)n(-c2cccnc2)n1)N1CCSC1 [Example 5, [5-(3-Chloro-5-fluorophenyl)-1-(pyridin-3-yl)-1H-pyrazol-3-yl](1,3-thiazolidin-3-yl)methanone]	0.023 µM	1.32 µM		0.533 µM
O=C1CN(C(=O)c2cc(-c3cc(Br)cc(OC(F)(F)F)c3)n(-c3ccccn3)n2)CN1 [Example 26, 1-({5-[3-Bromo-5-(trifluoromethoxy)phenyl]-1-(pyridin-2-yl)-1H-pyrazol-3-yl}carbonyl)imidazolidin-4-one]	0.12 µM	0.071 µM		> 3.3 µM
O=C(c1cc(-c2cc(Cl)cc(OC(F)F)c2)n(-c2cccnc2)n1)N1CCSC1 [Example 82, {5-[3-Chloro-5-(difluoromethoxy)phenyl]-1-(pyridin-3-yl)-1H-pyrazol-3-yl}(1,3-thiazolidin-3-yl)methanone]	0.016 µM	0.307 µM		0.348 µM
O=C1CN(C(=O)c2cc(-c3cc(F)cc(Br)c3)n(-c3ccnc(Cl)c3)n2)CCN1 [Example 93, 4-{[5-(3-Bromo-5-fluorophenyl)-1-(2-chloropyridin-4-yl)-1H-pyrazol-3-yl]carbonyl}piperazin-2-one]	0.016 µM	0.256 µM		0.137 µM
O=C1CN(C(=O)c2cc(-c3cnc(F)c(Cl)c3)n(-c3cccc(Cl)c3)n2)CN1 [Example 110, 1-{[5-(5-Chloro-6-fluoropyridin-3-yl)-1-(3-chlorophenyl)-1H-pyrazol-3-yl]carbonyl}imidazolidin-4-one]	0.024 µM	0.039 µM		0.025 µM
O=C1CN(C(=O)c2cc(-c3cc(F)cc(Cl)c3)n(-c3ccnc(Cl)c3)n2)CN1 [Example 14, 1-{[5-(3-Chloro-5-fluorophenyl)-1-(2-chloropyridin-4-yl)-1H-pyrazol-3-yl]carbonyl}imidazolidin-4-one]	0.005 µM	0.067 µM		0.096 µM
O=C1CN(C(=O)c2cc(-c3cc(F)cc(OC(F)F)c3)n(-c3cccnc3)n2)CCN1 [Example 67]	0.051 µM	0.721 µM		0.641 µM
COc1cc(Br)cc(-c2cc(C(=O)N3CCNC(=O)C3)nn2-c2cccnc2)c1 [Example 95]	0.005 µM	0.054 µM		0.033 µM
O=C(c1cc(-c2cc(F)cc(Cl)c2)n(-c2ccnc(C(F)(F)F)c2)n1)N1CC[S+]([O-])C1 (stereo not shown) [Example 19, {5-(3-Chloro-5-fluorophenyl)-1-[2-(trifluoromethyl)pyridin-4-yl]-1H-pyrazol-3-yl}(1-oxido-1,3-thiazolidin-3-yl)methanone]	0.152 µM	> 3.3 µM		2.5 µM
O=C1CN(C(=O)c2cc(-c3cc(Br)cc(OC(F)(F)F)c3)n(-c3cncc(Cl)c3)n2)CCN1 [Example 43, 4-({5-[3-Bromo-5-(trifluoromethoxy)phenyl]-1-(5-chloropyridin-3-yl)-1H-pyrazol-3-yl}carbonyl)piperazin-2-one]	0.103 µM	0.529 µM		0.751 µM
